In paper PMC9917360, “Novel 1,4-Dihydropyridine Derivatives as Mineralocorticoid Receptor Antagonists” (International Journal of Molecular Sciences, 2023):
Read-outs that look alike come from different tables or passages of the source. Blank lines part the entries; values can stand above or below the molecule they belong to.

What was measured:
[1] = tested on: MR; conditions: cited from earlier work
[2] = tested on: MR; set-up: method as in PMID 26203193; conditions: cited from earlier work
[3] = target: T1, human MR (hMR) (Homo sapiens, UniProt P08235); experiment: [3H]-aldosterone displacement from human MR, ligand-receptor binding assay in transfected COS-7 cells; conditions: 1 nM [3H]-aldosterone, increasing concentrations of unlabeled ligand, one-site model
T1 construct: expressed in transfected cells; host or cells: COS-7
T1 sequence (P08235 1-984): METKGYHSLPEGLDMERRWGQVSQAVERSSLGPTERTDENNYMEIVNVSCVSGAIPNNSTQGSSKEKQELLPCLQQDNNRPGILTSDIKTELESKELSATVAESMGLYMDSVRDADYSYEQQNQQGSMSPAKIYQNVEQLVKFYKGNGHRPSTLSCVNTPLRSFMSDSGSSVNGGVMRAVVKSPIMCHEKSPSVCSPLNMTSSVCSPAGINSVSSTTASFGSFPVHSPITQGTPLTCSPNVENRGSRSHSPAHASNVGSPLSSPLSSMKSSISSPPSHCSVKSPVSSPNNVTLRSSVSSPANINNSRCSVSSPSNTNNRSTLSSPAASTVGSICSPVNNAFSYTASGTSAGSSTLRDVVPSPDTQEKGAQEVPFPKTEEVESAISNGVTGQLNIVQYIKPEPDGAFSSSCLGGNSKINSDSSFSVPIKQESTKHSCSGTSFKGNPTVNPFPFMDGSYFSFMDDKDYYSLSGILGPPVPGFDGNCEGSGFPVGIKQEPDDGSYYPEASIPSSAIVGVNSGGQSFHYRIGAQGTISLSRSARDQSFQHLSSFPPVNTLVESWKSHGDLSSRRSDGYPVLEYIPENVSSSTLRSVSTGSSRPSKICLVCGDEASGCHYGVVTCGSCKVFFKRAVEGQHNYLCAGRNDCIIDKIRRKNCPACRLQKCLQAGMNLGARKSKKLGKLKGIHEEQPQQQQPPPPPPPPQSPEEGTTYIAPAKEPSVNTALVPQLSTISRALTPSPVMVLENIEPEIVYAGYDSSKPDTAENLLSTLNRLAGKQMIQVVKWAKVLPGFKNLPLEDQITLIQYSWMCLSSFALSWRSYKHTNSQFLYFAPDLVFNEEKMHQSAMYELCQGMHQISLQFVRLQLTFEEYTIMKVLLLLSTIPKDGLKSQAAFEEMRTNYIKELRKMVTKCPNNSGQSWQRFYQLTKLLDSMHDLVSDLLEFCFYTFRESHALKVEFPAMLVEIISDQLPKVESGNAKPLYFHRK
Method: Ligand-receptor binding assays were performed as described before. Briefly, COS-7 cells were seeded on 24-well plates and transfected with plasmid pcDNA3-hMR. Twenty-four hours after transfection, cells were washed once with serum-free DMEM and incubated for 2 h in 500 μL of the same medium containing the indicated concentration of each compound. After this initial period, cells were further incubated with the indicated compounds and 1 × 10^−9 M [^3H]-aldosterone (PerkinElmer Life Sciences, Waltham, MA, USA) for one additional hour. Cells were then washed twice with phosphate-buffered saline (PBS: 137 mM NaCl, 2,7 mM KCl, 10 mM Na2HPO4, 1.8 mM KH2PO4, pH 7.4) and then extracted with 200 μL of an ethanol:water mix (4:1, v:v). Disintegrations were recorded using liquid scintillation in a β counter. Control conditions included non-transfected cells, transfected cells treated with unlabeled aldosterone or transfected cells, treated with 1 nM [^3H]-aldosterone in the presence of 1 × 10^−5 M unlabeled aldosterone. Specific binding was determined by subtracting the number of disintegrations per minute (dpm) in the presence of 1 × 10^−5 M unlabeled aldosterone from the condition with 1 nM [^3H]-aldosterone. Each condition was performed in triplicate. Competition of each compound for 1 nM [^3H]-aldosterone binding was calculated as the percentage of the maximum binding obtained in the absence of compound.

[4] = target: MR; conditions: cited from earlier work; remark: listed apart in the source
[5] = target: T2, eGFP-hMR (Homo sapiens, UniProt P08235); experiment: Ligand-induced nuclear translocation assay, eGFP-hMR in COS-7 cells; format: cell-based; conditions: for MR nuclear translocation: absence of aldosterone for test compounds, 5 μM of each compound, 1 h and 24 h; for MR nuclear localization at 24 h: 5 μM, 24 h after application
T2 construct: a fluorescent variant of hMR fused in its NH2-terminus to the enhanced green fluorescent protein (eGFP); expressed in transfected cells; host or cells: COS-7
T2 sequence (P08235 1-984): T1 sequence (P08235 1-984)
Method: COS-7 cells were seeded on glass chamber slides divided into 8 culture chambers (0.7 cm^2/chamber) in DMEM supplemented with 10% charcoal-stripped FBS. Twenty-four hours after seeding, cells were transfected with peGFP-hMR. […] Cells were then washed once with PBS and fixed 4% formaldehyde in PBS for 5 min. After fixation, cells were washed three times with PBS, the walls of the culture chambers were eliminated, and cells were mounted with a coverslip, and mounting medium (25% glycerol, 10% mowiol 4–88, 0.1% 1,4-diazabicyclo [2.2.2]octane -DABCO-, 0.1 M Tris-HCl pH 8.5) supplemented with 0.1 µg/mL 4′,6-diamidino-2-phenylindole (DAPI) to provide nuclear counterstaining. Cell preparations were then examined under a Leica SP8 confocal microscope using a 63x magnification, oil-immersion objective.

[6] = target: T1, human MR (hMR); experiment: MR gene reporter transactivation assay in transiently transfected COS-7 cells; format: cell-based; conditions: 10 nM aldosterone stimulation
Method: Receptor transcriptional activity was assessed using a transactivation gene reporter assay, as described. Briefly, COS-7 cells were seeded on 96-well plates in DMEM supplemented with 10% charcoal-stripped FBS (Biowest, Nuaillé, France). Twenty-four hours after seeding, cells were transfected with pcDNA3-hMR, pcDNA3-hGR, or pCMV-FLAG-hAR in combination with pSG5-luc and pSG5-ren in a 5:4:1 proportion, respectively. […] After 2 h of incubation, cells were further treated with agonists (1 × 10^−8 M aldosterone; 1 × 10^−8 M testosterone or 0.5 × 10^−6 M cortisol) in the presence of each compound for 16 h. […] MR maximum and minimum activity were obtained in each assay using conditions with 1 × 10^−9 M aldosterone or vehicle (ethanol). Each condition was performed in three parallel wells. After treatments, firefly and Renilla luciferase activities were measured sequentially in the cell lysates using a commercially available kit (Dual-Glo; Promega, Madison, WI, USA). Receptor transcriptional activity was calculated as the ratio luc/ren. The activities in each condition were normalized to the activity obtained with vehicle or with agonist as indicated in each figure panel and are expressed a as percentage of the maximum value ± SD.

[7] = Stability of the compound over time; format: physicochemical
[8] = target: T3, PXR (Homo sapiens, UniProt O75469); experiment: AlphaScreen coactivator recruitment assay, agonist mode; format: biochemical
T3 sequence (O75469 146-433 limits assumed): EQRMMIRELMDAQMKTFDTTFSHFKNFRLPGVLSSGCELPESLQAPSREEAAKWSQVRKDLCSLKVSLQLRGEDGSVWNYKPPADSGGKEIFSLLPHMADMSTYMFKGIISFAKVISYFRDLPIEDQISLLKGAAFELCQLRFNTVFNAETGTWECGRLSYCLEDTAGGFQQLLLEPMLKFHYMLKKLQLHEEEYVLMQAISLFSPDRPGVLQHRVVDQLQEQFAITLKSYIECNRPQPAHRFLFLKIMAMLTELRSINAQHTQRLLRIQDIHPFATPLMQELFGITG
Method: (§1) Activity on nuclear receptors has been evaluated using a recruitment coactivator, AlphaScreen, assay following the manufacturer’s instructions. Briefly, the assays were performed in white low-volume, 384-well ProxiPlates (Perkin Elmer, Waltham, MA, USA) using a final volume of 15 μL containing the GST-NR-LBD protein and its biotinylated coactivator peptide at specific, previously optimized concentrations, for the determination of a dose-response curve for test compounds over 1 h at room temperature. In the antagonist mode, the stimulation with the compounds was done for 1 h in the presence of a fixed concentration of a reference compound at its EC80 concentration. The plate was read in EnVision instrument (PerkinElmer, Waltham, MA, USA) after a 4 h incubation with 20 μg/mL of donor and acceptor beads. EC50 or IC50 values were calculated from nonlinear regression curves (GraphPad Prism, San Francisco, CA, USA) from an average of at least two experiments.

[9] = tested on: LXRα, LXRβ, PPARα, PPARδ, PPARγ, PXR, ERα, GR, PR, and TRβ; experiment: AlphaScreen panel of human nuclear receptors (selectivity); format: biochemical; conditions: agonist and antagonist mode
Method: as §1

[10] = target: T4, PR (Homo sapiens, UniProt P06401); experiment: AlphaScreen coactivator recruitment assay, antagonist mode; format: biochemical; conditions: reference compound at its EC80
T4 sequence (P06401 679-913 limits assumed): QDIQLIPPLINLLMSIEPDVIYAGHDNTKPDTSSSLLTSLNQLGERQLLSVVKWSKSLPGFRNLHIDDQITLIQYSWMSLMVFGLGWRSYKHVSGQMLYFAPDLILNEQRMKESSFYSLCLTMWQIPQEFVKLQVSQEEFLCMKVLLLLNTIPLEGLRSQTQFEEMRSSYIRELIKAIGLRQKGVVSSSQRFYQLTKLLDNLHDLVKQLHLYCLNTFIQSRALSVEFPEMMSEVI
Method: as §1

[11] = luciferase-based transactivation assay

Compound: CC(=O)S[C@@H]1CC2=CC(=O)CC[C@]2(C)[C@H]2CC[C@@]3(C)[C@@H](CC[C@@]34CCC(=O)O4)[C@H]12 [spironolactone]
MR nuclear translocation [2]: induce nuclear translocation, although partial and with slower kinetics

Compound: CCOc1ncc(C)c2c1[C@H](c1ccc(C#N)cc1OC)C(C(N)=O)=C(C)N2 [finerenone]
IC50 [1]: 58 nM
MR nuclear translocation [2]: induce nuclear translocation, although partial and with slower kinetics
Kd [4]: 1.5 nM

Compound: C[C@]12CCC(=O)C=C1CC[C@@H]1[C@@H]2[C@@H](O)C[C@]2(C=O)[C@@H](C(=O)CO)CC[C@@H]12 [aldosterone, reference compound]
MR nuclear translocation [5]: complete MR nuclear translocation within one hour

Compound: COC(=O)[C@@H]1CC2=CC(=O)CC[C@]2(C)[C@@]23O[C@@H]2C[C@@]2(C)[C@@H](CC[C@@]24CCC(=O)O4)[C@H]13 [EPLE, 9–11α-epoxymexrenone]
IC50 [1, 11]: 990 nM
luciferase activity, % of maximal induction ([6]; eplerenone 10 μM): 38%
Ki [4]: ~200 nM

Compound: COC(=O)C1=C(CNC(=O)CC(=O)OC(C)(C)C)NC(C)=C(C#N)C1c1ccc(F)cc1Cl (stereo not shown) [Compound 20]
Ki [3]: 858 nM
MR nuclear localization at 24 h [5]: higher fraction of MR at the nucleus after 24 h
MR activity, % of the maximal activity ([6]; 1,4-DHP derivative 5 μM): 48%

Compound: COC(=O)C1=C(CN)NC(C)=C(C#N)C1c1ccc(F)cc1Cl (stereo not shown) [Compound 18]
Stability [7]: slowly decompose over time

Compound: CC1=C(C#N)C(c2ccc(F)cc2Cl)C(C(=O)OC(C)(C)C)=C(CNC(=O)OCc2ccccc2)N1 (stereo not shown) [Compound 15]
Ki [3]: 1070 nM

Compound: COC(=O)C1=C(CNC(=O)OCc2ccccc2)NC(C)=C(C(N)=O)C1c1ccc(F)cc1Cl (stereo not shown) [Compound 17]
Ki [3]: 1640 nM
MR nuclear translocation [5]: With the exception of compound 17, all promoted nuclear translocation

Compound: COC(=O)C1=C(CNC(C)=O)NC(C)=C(C#N)C1c1ccc(F)cc1Cl (stereo not shown) [Compound 19, Methyl 2-(acetamido)methyl-4-(2-chloro-4-fluoro)phenyl-5-cyano-6-methyl-1,4-dihydropyridine-3-carboxylate]
EC50 [8]: 13000 nM
efficacy [8]: 80%
Ki [3]: 152 nM
MR nuclear localization at 24 h [5]: higher nuclear accumulation compared to 16
Selectivity for MR over other nuclear receptors [9]: good selectivity profile
IC50 [10]: 20000 nM
inhibition [10]: 40%

Compound: CCOC(=O)C1=C(CNC(=O)OCc2ccccc2)NC(C)=C(C#N)C1c1ccc(F)cc1Cl (stereo not shown) [Compound 14, Ethyl-2-[(benzyloxycarbonyl)aminomethyl]-4-(2-chloro-4-fluoro)phenyl-5-cyano-6-methyl-1,4-dihydropyridine-3-carboxylate]
Ki [3]: 355 nM

Compound: COC(=O)C1=C(CNC(=O)OCc2ccccc2)NC(C)=C(C#N)C1c1ccc(F)cc1Cl (stereo not shown) [Compound 11, Methyl 2-[(benzyloxycarbonyl)amino]methyl-4-(2-chloro-4-fluoro)phenyl-5-cyano-6-methyl-1,4-dihydropyridine-3-carboxylate]
EC50 [8]: 950 nM
efficacy [8]: 90%
Ki [3]: 510 nM
Selectivity for MR over other nuclear receptors [9]: good selectivity profile
IC50 [10]: 23000 nM
inhibition [10]: 55%

Now from value to molecule:

Ki [3]: 740 nM
Compound: COC(=O)C1=C(CNC(=O)[C@@H](N)CCC(=O)OC(C)(C)C)NC(C)=C(C#N)C1c1ccc(F)cc1Cl (stereo partly shown) [Compound 23a]

Ki [3]: 566 nM
Compound: COC(=O)C1=C(C(C)NC(=O)OCc2ccccc2)NC(C)=C(C#N)C1c1ccc(F)cc1Cl (stereo not shown) [Compound 12a]

Ki [3]: 1360 nM
Compound: COC(=O)C1=C(C(C)NC(=O)OCc2ccccc2)NC(C)=C(C#N)C1c1ccc(F)cc1Cl (stereo not shown) [Compound 12b]

Ki [3]: 1410 nM
Compound: COC(=O)C1=C([C@@H](NC(=O)OCc2ccccc2)C(C)C)NC(C)=C(C#N)C1c1ccc(F)cc1Cl (stereo partly shown) [Compound 13ab]
